Experimental data from US9937194B1, “Compounds and methods for treating inflammatory diseases” (priority 2009, dated 2018).
≈ marks a conversion by molar mass, not a printed value. Where “and” joins values, the source holds several entries; their conditions need not be identical. Equal values may be shown once.

Key:
S. pneumoniae ATCC 49619 = experiment: MIC; format: cell-based
S. pneumoniae 163 (MefA) = experiment: MIC; format: cell-based; conditions: in µg/mL
TNFα = experiment: LPS-induced TNFα release in PMA-differentiated U937 cells (ELISA); format: cell-based, human; conditions: test concentration not given
Summary of the method: (§1)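 PMA-differentiated U937 macrophage-like cells were pretreated with compound for 1 hr, then stimulated with LPS (100 ng/ml) for 4 hrs. Released IL-8 and TNFα were quantified by sandwich ELISA. Values are means of three experiments ± SEM.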

[1] = format: cell-based; conditions: test concentration not given
[2] = tested on: S. pneumoniae 3773 (ErmB); experiment: MIC; format: cell-based
HDAC activity = experiment: H2O2-induced reduction of HDAC activity in PMA-differentiated U937 cells; format: cell-based, human; conditions: test concentration not given; bracketed second value not explained
Summary of the method: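 U937 cells PMA-differentiated for 3 days, pretreated with compound for 20 min, then exposed to 200 μM H2O2 for 4 h with Fluor de Lys substrate present. Whole-cell HDAC activity measured fluorimetrically. Data expressed as fold change versus H2O2-only control, mean of four experiments ± SEM.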

H. influenzae ATCC 49247 = experiment: MIC; format: cell-based
S. pyogenes ATCC 1721 = experiment: MIC; format: cell-based
IL-8 = experiment: LPS-induced IL-8 release in PMA-differentiated U937 cells (ELISA); format: cell-based, human; conditions: test concentration not given
Summary of the method: as §1

MMP9 = experiment: PMA-induced MMP9 expression in U937 cells (gelatin zymography); format: cell-based, human; conditions: test concentration not given; bracketed second value not explained
S. pneumoniae 303 (ErmB) = experiment: MIC; format: cell-based
[3] = tested on: S. typhimurium ATCC 14028; experiment: MIC; format: cell-based; conditions: in µg/mL
E. coli ATCC 25922 = experiment: MIC; format: cell-based; conditions: in µg/mL
E. faecalis ATCC 29212 = experiment: MIC; format: cell-based
[4] = tested on: S. aureus ATCC 29213 (MSSA) MLS-S; experiment: MIC; format: cell-based
K. pneumonia 13883 = experiment: MIC; format: cell-based; conditions: in µg/mL
P. aeruginosa ATCC 27853 = experiment: MIC; format: cell-based
S. pyogenes ATCC 19615 = experiment: MIC; format: cell-based; conditions: in µg/mL
[5] = tested on: N. gonorrhoeae ATCC 49226; experiment: MIC; format: cell-based; design: unit not given beside the values

Row | Compound | MIC S. pneumoniae ATCC 49619 (S. pneumoniae ATCC 49619) [µg/mL] | MIC S. pneumoniae 163 (MefA) (S. pneumoniae 163 (MefA)) | TNFα inhibition (%) (TNFα) | Cell Toxicity (% cell death) [1] [%] | MIC S. pneumoniae 3773 (ErmB) [2] [µg/mL] | restoration of H2O2-reduced HDAC activity (%) (HDAC activity) | MIC H. influenzae ATCC 49247 (H. influenzae ATCC 49247) [µg/mL] | MIC S. pyogenes ATCC 1721 (S. pyogenes ATCC 1721) [µg/mL] | IL-8 inhibition (%) (IL-8) | MMP9 inhibition (%) (MMP9) | MIC S. pneumoniae 303 (ErmB) (S. pneumoniae 303 (ErmB)) [µg/mL] | MIC S. typhimurium ATCC 14028 [3] | MIC E. coli ATCC 25922 (E. coli ATCC 25922) | MIC E. faecalis ATCC 29212 (E. faecalis ATCC 29212) [µg/mL] | MIC S. aureus ATCC 29213 (MSSA) MLS-S [4] [µg/mL] | MIC K. pneumonia 13883 (K. pneumonia 13883) | MIC P. aeruginosa ATCC 27853 (P. aeruginosa ATCC 27853) [µg/mL] | MIC S. pyogenes ATCC 19615 (S. pyogenes ATCC 19615) | MIC N. gonorrhoeae ATCC 49226 [5]
1 | CC[C@H]1OC(=O)[C@H](C)C(=O)[C@H](C)[C@@H](O[C@@H]2O[C@H](COC(=O)c3ccccc3)[C@@H](N)[C@@H]2O)[C@@](C)(OC)C[C@@H](C)C(=O)[C@H](C)[C@H]2N(CCCCn3cc(-c4ccccn4)nn3)C(=O)O[C@]12C [Example 26] | 32 (≈ 35.9 µM) | 64 | −25 | −2 | > 64 | 92% | > 64 | > 64 | −51 | 2% |  |  |  |  |  |  |  |  | 
2 | CC[C@H]1OC(=O)[C@@](C)(F)C(=O)[C@H](C)[C@@H](O[C@@H]2O[C@H](C)[C@@H](OC(=O)Nc3ccccc3)[C@H](N(C)C)[C@H]2O)[C@@](C)(OC)C[C@@H](C)C(=O)[C@H](C)[C@H]2N(CCCCn3cc(-c4ccccn4)nn3)C(=O)O[C@]12C [Example 27] | 32 (≈ 33.1 µM) | 8 | 34 | −7 | > 64 | 75% | > 64 | > 64 | −43 | 1% | > 64 |  |  |  |  |  |  |  | 
3 | CCC1OC(=O)C(C)C(OC2OCC(O)C(NC)C2O)C(C)C(OC2OC(C)CC(N(C)C)C2O)C(C)(O)CC(C)CN(C(C)=O)C(C)C2OC(=O)OC12C (mixture of isomers) [Example 32] | 32 |  | 73 | 11 |  | 79 (65) % |  |  | 55 | 40 (49) % |  | >64 | >64 | 32 | 32 | >64 | > 64 |  | 
4 | CCC1OC(=O)C(C)C(OC2OCC(O)C(N(C)C)C2O)C(C)C(OC2OC(C)CC(N(C)C)C2O)C(C)(O)CC(C)CN(C(C)=O)C(C)C2OC(=O)OC12C (mixture of isomers) [Example 40] | 64 |  | 68 | 26 |  | 26% | > 64 |  | 93 | 60 (38) % |  | >64 | >64 | 32 | 16 | >64 | > 64 | >64 | 8 and 16
